Laboratory results taken from patent US10294226B2, “Small molecule inhibitors of the JAK family of kinases” (Janssen Pharmaceutica NV, priority 2016, dated 2019).
Converted amounts (≈) assume the structure as drawn.

Tests used:
[1] = In vivo intracolonic (i.c.) dosing, plasma and colon concentrations (Protocol 3); design: species or system female C57BL/6 mice; key to Plasma Concentration After i.c. Dosing, Mean: ^: Mean was not calculated as the values for all three mice were below the lower limit of quantitation; conditions: mice; for Plasma Concentration After i.c. Dosing, Mean: 5 mg/kg i.c.
Source text: Plasma and colon concentration results were obtained by following Protocol 1 using venipuncture of dorsal metatarsal vein bleed for Compounds (B), (C), and Examples 6 and 11. Plasma and colon concentration results were obtained by following Protocol 2 using retro-orbital bleed for Compounds (A), and Examples 1, and 3-5 and Protocol 2 using venipuncture of the dorsal metatarsal vein for Examples 2, 7-10, and 12. Plasma and colon concentration results were obtained by following Protocol 3 for Examples 1, 3 and 4. These protocols are described below under the heading In vivo Studies.
Intracolonic (IC) dose group: Following anesthesia with isoflurane by inhalation, three non-fasted female C57BL/6 mice were administered the compound intracolonically through a small incision in the abdominal wall using a syringe and needle at a dose of 5 mg/kg as a solution in 20% HPβCD at a dose volume of 1 mL/kg. Blood samples were collected at 0.5, 2, and 4 h post dose via retro-orbital bleed. Blood samples were collected into tubes containing anticoagulant (Heparin-Na) and placed on wet ice. The plasma fraction was separated by centrifugation and frozen at −20° C. for up to 4 h and −80° C. after 4 h unless analyzed shortly after sample collection. Colon samples were collected at 4 h post dose. From 2 cm below the cecum, a 4-cm sample of the colon was dissected, cut open on the longitudinal axis, and the solid contents removed by flushing with 2 mL of saline. The colon was further washed by putting it in 5 mL of saline and shaken for 5 seconds. The colon sample was then patted dry, weighed, and homogenized as 1 part tissue (g) to 4 parts HPLC grade water (mL). Concentrations of the compound in plasma and colon homogenate were determined using a qualified liquid chromatography-triple quadrupole mass spectrometry (LC-MS/MS) method. This protocol was used to evaluate IC dosing of the following test compounds: Examples 1, 3, and 4.

[2] = test system: IL-2 pSTAT5 (JAK1/JAK3); experiment: IL-2 pSTAT5 (JAK1/JAK3) cellular assay, AlphaLISA in PBMCs; format: cell-based; conditions: PBMC, IL-2 5 ng/mL
Description: The AlphaLISA assay (based on Alpha Technology from PerkinElmer) was performed by first plating freshly thawed PBMCs (Biological Specialty Corporation) in 384-well plates at 30,000 cells per 4 μL per well in HBSS (Hanks' Balanced Salt Solution) containing 0.1% IgG (immunoglobulin G)-free, protease-free BSA (bovine serum albumin) (Jackson ImmunoResearch Cat. No. 001-000-161). The cells were then treated with 2 μL/well of compounds diluted in DMSO at half-log titrated concentrations, with a highest test concentration of 10 μM and 0.5% final DMSO concentration, for thirty minutes at 37° C. […] The cellular reactions were terminated by the addition of 2 μL/well of lysis buffer (PerkinElmer Cat. No. ALSU-PST5-A10K) followed by an incubation of five minutes at room temperature. 5 μL/well of acceptor mix (PerkinElmer Cat. No. ALSU-PST5-A10K) was added to the cells and incubated in the dark for one hour at room temperature. Then, 5 μL/well of donor mix (PerkinElmer Cat. No. ALSU-PST5-A10K) was added to the cells and incubated in the dark overnight at room temperature. Finally, the plates were read on a PerkinElmer EnVision for detection of the time-resolved fluorescence signal. The percentage of IL-2-dependent pSTAT5 inhibition was determined at the compound test concentrations; and for each compound, a dose curve was generated and the IC50 was calculated. Compound IC50 was calculated by nonlinear regression, sigmoidal dose response analysis of the half-log dilution titration curve of the compound concentration vs. Alpha signal. The acronym “Alpha” stands for amplified luminescent proximity homogeneous assay; the Alpha signal is a luminescent/fluorescent signal.

[3] = test system: GM-CSF pSTAT5 (JAK2/JAK2); experiment: GM-CSF pSTAT5 (JAK2/JAK2) cellular assay, AlphaLISA in PBMCs; format: cell-based; conditions: PBMC, GM-CSF 11 pg/mL
Description: The AlphaLISA assay (based on Alpha Technology from PerkinElmer) was performed by first plating freshly thawed PBMCs (Biological Specialty Corporation) in 384-well plates at 30,000 cells per 4 μL per well in HBSS containing 0.1% IgG-free, protease-free BSA (Jackson ImmunoResearch Cat. No. 001-000-161). The cells were then treated with 2 μL/well of compounds diluted in DMSO at half-log titrated concentrations, with a highest test concentration of 10 μM and 0.5% final DMSO concentration, for thirty minutes at 37° C. Next, the cells were stimulated with 2 μL/well of GM-CSF (R&D Systems Cat. No. 215-GM-050) at 11 pg/mL for fifteen minutes at 37° C. The cellular reactions were terminated by the addition of 2 μL/well of lysis buffer (PerkinElmer Cat. No. ALSU-PST5-A10K) followed by an incubation of five minutes at room temperature. 5 μL/well of acceptor mix (PerkinElmer Cat. No. ALSU-PST5-A10K) was added to the cells and incubated in the dark for one hour at room temperature. Then, 5 μL/well of donor mix (PerkinElmer Cat. No. ALSU-PST5-A10K) was added to the cells and incubated in the dark overnight at room temperature. Finally, the plates were read on a PerkinElmer EnVision for detection of the time-resolved fluorescence signal. The percentage of GM-CSF-dependent pSTAT5 inhibition was determined at the compound test concentrations; and for each compound, a dose curve was generated and the IC50 was calculated. Compound IC50 was calculated by nonlinear regression, sigmoidal dose response analysis of the half-log dilution titration curve of the compound concentration vs. Alpha signal. The term “Alpha” is defined in the IL-2 pSTAT5 (JAK1/JAK3) cellular assay description.

[4] = test system: MDCK-MDR1 cell line; experiment: MDCK-MDR1 permeability assay; format: in vitro ADME; conditions: for MDCK-MDR1 Papp(A-B): without elacridar; for MDCK-MDR1 Papp(B-A): basolateral to apical; for Papp(B-A)/Papp(A-B) efflux ratio: MDCK-MDR1, @ 5 μM
Description: Permeability measurements were conducted according to the Cyprotex protocol using the MDCK-MDR1 cell line obtained from the NIH (Rockville, Md., USA). […] The cells in this assay form a cohesive sheet of a single cell layer filing the surface area of the culture dish, also known as a confluent monolayer, and on day four the test compound was added to the apical side of the membrane and the transport of the compound across the monolayer was monitored over a time period of 60 min.
Test compounds were dissolved in DMSO at a concentration of 10 mM. The dosing solutions were prepared by diluting test compound with assay buffer (Hanks Balanced Salt Solution), pH 7.4, at a final concentration of 5 μM. For assessment of apical to basolateral (“A-B”) permeability, buffer was removed from the apical compartment and replaced with test compound dosing solution with or without the permeability glycoprotein (“PgP”, “P-gP”, “Pgp” or “P-gp”) inhibitor elacridar (2 μM). For assessment of basolateral to apical (“B-A”) permeability, buffer was removed from the companion plate and replaced with test compound dosing solution. Incubations were carried out in duplicate at 37° C. in an atmosphere of 5% CO2 with a relative humidity of 95%. […] After incubation for 60 minutes, apical and basolateral samples were diluted and test compounds quantified by LC/MS/MS using an 8-point calibration in the range 0.0039 to 3 μM with appropriate dilution of the samples (receiver dilution factor=1; donor and C0 dilution factor=10). The permeability coefficient (Papp) for each compound was calculated from the following equation: Papp=(dQ/dt)/(C0×S), where dQ/dt is the rate of permeation of the drug across the cells, C0 is the donor compartment concentration at time zero, and S is the area of the cell monolayer.
The percent recovery was measured for all incubation conditions.
Papp(A-B) gives an indication of permeation extent across the cells in this assay, which is envisaged to model the transcellular transport across Pgp-expressing cells, such as Pgp-expressing gastrointestinal tract cells.
The integrity of each monolayer was monitored by examining the permeation of lucifer yellow by fluorimetric analysis.

[5] = physchem; conditions: pH 6.5, fassif, thermodynamic from solid

SMILES	Plasma Concentration After i.c. Dosing, Mean ([1]; Time = 2 h)	Plasma Concentration After i.c. Dosing, Mean ([1]; Time = 4 h)	systemic exposure after i.c. dosing [1]	IC50 [2] [nM]	IC50 [3] [nM]	MDCK-MDR1 Papp(A-B) ([4]; @ 5 μM, apical to basolateral)	MDCK-MDR1 Papp(B-A) ([4]; @ 5 μM)	Papp(B-A)/Papp(A-B) efflux ratio [4]	solubility [5] [µM]	MDCK-MDR1 P^eapp(A-B) ([4]; @ 5 μM, apical to basolateral, with P-gp inhibitor elacridar (2 μM))
CC(C)(O)CNC(=O)Cc1nc2cnc3[nH]ccc3c2n1[C@H]1CC[C@H](CC#N)CC1 [Ex. 1, 2-(1-((1r,4r)-4-(Cyanomethyl)cyclohexyl)-1,6-dihydroimidazo[4,5-d]pyrrolo[2,3-b]pyridin-2-yl)-N-(2-hydroxy-2-methylpropyl)acetamide]	^	^	low systemic exposures	21.6	83.9	0.4 10^−6 cm/sec	1.1 10^−6 cm/sec	3.3	387 (≈ 158 µg/mL)	
N#CC[C@H]1CC[C@H](n2c(CC(=O)NCC3(O)CC3)nc3cnc4[nH]ccc4c32)CC1 [Ex. 12, 2-(1-((1r,4r)-4-(Cyanomethyl)cyclohexyl)-1,6-dihydroimidazo[4,5-d]pyrrolo[2,3-b]pyridin-2-yl)-N-((1-hydroxycyclopropyl)methyl)acetamide]				13.9	75.4					
N#CC[C@H]1CC[C@H](n2c(-c3c[nH]cn3)nc3cnc4[nH]ccc4c32)CC1 [Ex. 2, 2-((1r,4r)-4-(2-(1H-Imidazol-4-yl)imidazo[4,5-d]pyrrolo[2,3-b]pyridin-1(6H)-yl)cyclohexyl)acetonitrile]				9	61					
N#CC[C@H]1CC[C@H](n2c(CC(=O)NCC3CCOCC3)nc3cnc4[nH]ccc4c32)CC1 [Ex. 6, 2-(1-((1r,4r)-4-(Cyanomethyl)cyclohexyl)-1,6-dihydroimidazo[4,5-d]pyrrolo[2,3-b]pyridin-2-yl)-N-((tetrahydro-2H-pyran-4-yl)methyl)acetamide]				6.7	25.1		2.6 10^−6 cm/sec	> 8.7		
N#CCC12CCC(NC(=O)Cc3nc4cnc5[nH]ccc5c4n3[C@H]3CC[C@H](CC#N)CC3)(CC1)C2 [Ex. 10, N-(4-(Cyanomethyl)bicyclo[2.2.1]heptan-1-yl)-2-(1-((1r, 4r)-4-(cyanomethyl)cyclohexyl)-1,6-dihydroimidazo[4,5-d]pyrrolo[2,3-b]pyridin-2-yl)acetamide]				16.8	44.6				359 (≈ 169 µg/mL)	
N#CC[C@H]1CC[C@H](n2c(CC(=O)NCC3(O)CCC3)nc3cnc4[nH]ccc4c32)CC1 [Ex. 8, 2-(1-((1r,4r)-4-(Cyanomethyl)cyclohexyl)-1,6-dihydroimidazo[4,5-d]pyrrolo[2,3-b]pyridin-2-yl)-N-((1-hydroxycyclobutyl)methyl)acetamide]				20.6	33.8					
N#CC[C@H]1CC[C@H](n2c(CC(=O)NCC3CC3)nc3cnc4[nH]ccc4c32)CC1 [Ex. 3, 2-(1-((1r,4r)-4-(Cyanomethyl)cyclohexyl)-1,6-dihydroimidazo[4,5-d]pyrrolo[2,3-b]pyridin-2-yl)-N-(cyclopropylmethyl)acetamide]	^	^	low systemic exposures	6.4	21.9	< 0.5 10^−6 cm/sec	16 10^−6 cm/sec	> 33		
N#CCCNC(=O)Cc1nc2cnc3[nH]ccc3c2n1[C@H]1CC[C@H](CC#N)CC1 [Ex. 4, N-(2-Cyanoethyl)-2-(1-((1r,4r)-4-(cyanomethyl)cyclohexyl)-1,6-dihydroimidazo[4,5-d]pyrrolo[2,3-b]pyridin-2-yl)acetamide]		^	low systemic exposures	35.5	119					
CC(C)(C#N)CNC(=O)Cc1nc2cnc3[nH]ccc3c2n1[C@H]1CC[C@H](CC#N)CC1 [Ex. 7, N-(2-Cyano-2-methylpropyl)-2-(1-((1r,4r)-4-(cyanomethyl)cyclohexyl)-1,6-dihydroimidazo[4,5-d]pyrrolo[2,3-b]pyridin-2-yl)acetamide]				9.7	67.3				81 (≈ 33.8 µg/mL)	
N#CC[C@H]1CC[C@H](n2c(CC(=O)NC3CCOCC3)nc3cnc4[nH]ccc4c32)CC1 [Ex. 5, 2-(1-((1r,4r)-4-(Cyanomethyl)cyclohexyl)-1,6-dihydroimidazo[4,5-d]pyrrolo[2,3-b]pyridin-2-yl)-N-(tetrahydro-2H-pyran-4-yl)acetamide]				6.4	28.9	< 0.5 10^−6 cm/sec	2.1 10^−6 cm/sec	> 4.5	198 (≈ 83.3 µg/mL)	0.5 10^−6 cm/sec
